Source: US5135943A, “1H-imidazole derivative compounds and pharmaceutical compositions containing the same” (priority 1984, dated 1992)
In brackets after ≈: the same amount, converted by molar mass. Read-outs that look alike come from different tables or passages of the source.

Legend:
[1] = system: Candida albicans; assay: MIC by two-fold dilution, Candida albicans; format: cell-based
Text: (§1) A number of compounds with antimycotic and/or fungicidal properties, which are useful in pharmaceutical compositions, are currently known. These include the commercially successful Miconazole having the formula II [drawing 2] Miconazole has a structure chemically similar to the 1H-imidazole derivative compounds of the invention. Miconazole is effective against a number of yeasts, dermatophytes and fungi. This effectiveness can be measured by culturing these microorganisms in vitro and applying a preparation containing the antimycotic compound, Miconazole. The results of this type of in vitro experiment is expressed in terms of the Minimum Inhibitory Concentration (MIC), i.e. the minimum concentration which inhibits the growth of the microorganism. For example, the MIC for Miconazole against a particular Candida albicans strain is found to be 10.7 micrograms/milliliter. The effectiveness of Miconazole as an antimycotic compound is measured in vivo by applying a suspension containing the drug to the skin of a number of animals and measuring the proportion of animals on which growth of the microorganism is inhibited as a function of time. Typically, after 25 days, about 1/4 of the animals were cured, when treated with a cream containing 2 % by weight Miconazole. Of course, any pharmaceutical preparation for treating a disease in a human must satisfy certain toxicity requirements. […] Toxicity tests have been performed on the IH-imidazole derivative compounds of the invention and on Miconazole and other known compounds having antimycotic properties. In toxicity tests the LD50 (the dose at which 50 % mortality occurs) is measured.
(§2) Minimum Inhibitory Concentrations (MICS) of Sertaconazole and Miconazole against 107 yeasts, 47 dermatophytes and 4 fungi were determined by a two-fold dilution method.

[2] = system: Candida tropicalis; assay: MIC by two-fold dilution, Candida tropicalis; format: cell-based; conditions: 10 strains, read-out: Minimum Inhibitory Concentration
Protocol: as §2

[3] = system: Torulopsis glabrata; assay: MIC by two-fold dilution, Torulopsis glabrata; format: cell-based; conditions: Nakaseomyces glabratus; 10 strains; read-out: Minimum Inhibitory Concentration
Protocol: as §2

[4] = system: Candida s.p.; assay: MIC by two-fold dilution, Candida s.p.; format: cell-based
Protocol: as §2

[5] = system: Trichophyton rubrus; assay: MIC by two-fold dilution, Trichophyton rubrus; format: cell-based; conditions: 10 strains, read-out: Minimum Inhibitory Concentration
Protocol: as §2

[6] = system: Dermatophytes, Others; assay: MIC by two-fold dilution, other dermatophytes; format: cell-based; conditions: 3 strains; read-out: Minimum Inhibitory Concentration
Protocol: as §2

[7] = system: Scopulariopsis brevi-caulis; assay: MIC by two-fold dilution, Scopulariopsis brevicaulis; format: cell-based
Protocol: as §2

[8] = system: C. albicans 31; assay: MIC, comparative in vitro testing against Martin compounds; format: cell-based; conditions: YNB medium
Protocol: (§3) Minimum Inhibitory Concentrations (MICS) of Sertaconazole were also measured in comparison to four of the compounds described in the Martin Patent, including a compound, referred to herein as Martin Compound 1, which has the same structure as Sertaconazole, expect that the sulfur in the benzothiophene ring is replaced by an oxygen.
(§4) The results of comparative in vitro testing of Sertaconazole and these four Martin compounds are shown in the following Table II against 16 microorganisms. The reading time is the time interval from the time of inoculation to the time of measurement.

[9] = system: C. guillermondii; assay: as above; format: cell-based
Protocol: as §3, §4

[10] = system: C. parapsilosis 19; assay: as above; format: cell-based
Protocol: as §3, §4

[11] = system: C. tropicalis 25; assay: as above; format: cell-based; conditions: YNB medium
Protocol: as §3, §4

[12] = system: Trichophyton mcntagrophytes; assay: Dermal infection in albino female guinea pigs by Trichophyton mentagrophytes; format: in vivo, guinea pig; conditions: for % microbiological healing / Negative Cultures to Total Cultures: 2% cream
Text: as §1
Dermal infection in albino female guinea pigs by Trichophyton mcntagrophytes has been studied. Animals were distributed in three groups: a) a control group of infected untreated animals; b) a scrtaconazole group of infected and treated animals; and c) a miconazole group of infected and treated animals. Animals were depleted and a 0.4 ml suspension of the microorganism was applied on the depleted area. Treatment with each of the test drugs was made by application of 1 g of 2% cream on the depleted area on the 4th, 5th and 6th day after infection.

[13] = system: Candida albicans; assay: Vaginal infection by Candida albicans in female mice; format: in vivo; conditions: seven days after infection
Text: Besides the above in vivo experiments vaginal infection by Candida albicans was studied in female mice. Standard methods were used. […] Similar results were found in experiments where repeated dosages of active compound were used after infection. These in vivo results confirmed the surprising speed of action of Sertaconazole in comparison to the prior art compounds.

[14] = Acute toxicity (LD50) in rat, three administration routes; conditions: in vivo, males
Protocol: Toxicity of Sertaconazole, Microazole and Martin's compounds 1, 2 and 3, as shown below, has been tested by standard methods. Both acute toxicity, subacute toxicity and chronic toxicity were studied
(§5) Oral, intraperitoneal and subcutaneous acute toxicity of sertaconazole and miconazole have been investigated. LD50 in mouse and rat, male and female, were measured.

[15] = Comparison of acute toxicity of Sertaconazole and Miconazole (Table IV); format: in vivo
Protocol: as §5

[16] = system: Swiss mice; conditions: mouse, in vivo
Text: Such signs included convulsions and Straub tail(vertical righting of the tail).

**Q.** Which results are given for `Clc1ccc(C(Cn2ccnc2)OCc2csc3c(Cl)cccc23)c(Cl)c1` (centres unmarked) [Sertaconazole]?
**A.** MIC ([1]; Candida albicans, 52 strains, read-out: Minimum Inhibitory Concentration): 6 µg/mL (≈ 13.7 µM); increase of activity in comparison to Miconazole ([1]; in vitro): 43.9%; MIC [2]: 5.6 µg/mL (≈ 12.8 µM); MIC [3]: 1.5 µg/mL (≈ 3.43 µM); MIC ([4]; Candida, 15 strains, read-out: Minimum Inhibitory Concentration): 0.5 µg/mL (≈ 1.14 µM); increase of activity in comparison to Miconazole ([4]; in vitro): 47.4%; MIC [5]: 0.4 µg/mL (≈ 0.914 µM); MIC [6]: 2.5 µg/mL (≈ 5.71 µM); MIC ([7]; Scopulariopsis, 4 strains, read-out: Minimum Inhibitory Concentration): 8 µg/mL (≈ 18.3 µM); increase of activity in comparison to Miconazole ([7]; in vitro): 75%; MIC ([8]; Candida albicans, 31, reading time 48 h, SZ vs M2, read-out: MIC): 4 µg/mL (≈ 9.14 µM); MIC ([8]; Candida albicans, 31, reading time 60 h, SZ vs M1, read-out: MIC): 8 µg/mL (≈ 18.3 µM); MIC ([8]; reading time 48 h, SZ vs M3): 4 µg/mL (≈ 9.14 µM); MIC ([8]; reading time 48 h, SZ vs M4): 4 µg/mL (≈ 9.14 µM); MIC ([9]; 48 h): 0.125 µg/mL (≈ 0.286 µM); MIC ([9]; 48 h, Casitone medium, reading time 48 h, SZ vs M2, read-out: MIC): 0.25 µg/mL (≈ 0.571 µM); MIC ([9]; 48 h, Casitone medium, reading time 48 h, SZ vs M3, read-out: MIC): 0.25 µg/mL (≈ 0.571 µM); MIC ([9]; 48 h, Casitone medium, reading time 48 h, SZ vs M4, read-out: MIC): 0.25 µg/mL (≈ 0.571 µM); MIC ([9]; 48 h, YNB medium, reading time 48 h, SZ vs M2, read-out: MIC): 0.25 µg/mL (≈ 0.571 µM); MIC ([9]; 60 h, Casitone medium, reading time 60 h, SZ vs M1, read-out: MIC): 0.5 µg/mL (≈ 1.14 µM); MIC ([9]; 60 h, YNB medium, reading time 60 h, SZ vs M1, read-out: MIC): 0.25 µg/mL (≈ 0.571 µM); MIC ([9]; YNB medium, reading time 48 h, SZ vs M4): 0.125 µg/mL (≈ 0.286 µM); MIC ([10]; 19, 48 h, Sabouraud medium, reading time 48 h, SZ vs M2): 0.25 µg/mL (≈ 0.571 µM); MIC ([10]; 19, 48 h, Sabouraud medium, reading time 48 h, SZ vs M3): 0.25 µg/mL (≈ 0.571 µM); MIC ([10]; 19, 48 h, Sabouraud medium, reading time 48 h, SZ vs M4): 0.25 µg/mL (≈ 0.571 µM); MIC ([10]; 19, 48 h, YNB medium, reading time 48 h, SZ vs M2): 0.25 µg/mL (≈ 0.571 µM); MIC ([10]; 19, 48 h, YNB medium, reading time 48 h, SZ vs M3): 0.5 µg/mL (≈ 1.14 µM); MIC ([10]; 19, 48 h, YNB medium, reading time 48 h, SZ vs M4): 0.5 µg/mL (≈ 1.14 µM); MIC ([10]; 19, 60 h, Sabouraud medium, reading time 60 h, SZ vs M1): 1 µg/mL (≈ 2.28 µM); MIC ([10]; 19, 60 h, YNB medium, reading time 60 h, SZ vs M1): 0.5 µg/mL (≈ 1.14 µM); MIC ([11]; Candida tropicalis, 25, 48 h, reading time 48 h, SZ vs M2): 8 µg/mL (≈ 18.3 µM); MIC ([11]; Candida tropicalis, 25, 48 h, reading time 48 h, SZ vs M3): 4 µg/mL (≈ 9.14 µM); MIC ([11]; Candida tropicalis, 25, 48 h, reading time 48 h, SZ vs M4): 4 µg/mL (≈ 9.14 µM); MIC ([11]; Candida tropicalis, 25, 60 h, reading time 60 h, SZ vs M1): 8 µg/mL (≈ 18.3 µM); % microbiological healing ([12]; 18 days postinfection): 56%; Negative Cultures to Total Cultures ([12]; 18 days postinfection): 27/48; % microbiological healing ([12]; 25 days postinfection): 75%; Negative Cultures to Total Cultures ([12]; 25 days postinfection): 36/48; % microbiological healing ([12]; 32 days postinfection): 84%; Negative Cultures to Total Cultures ([12]; 32 days postinfection): 40/48; activity higher than Miconazole ([12]; 18th day postinfection): 9 times; activity higher than Miconazole ([12]; 25th day postinfection): 2.7 times; activity higher than Miconazole ([12]; 32nd day postinfection): 1.9 times; animals healed [13]: 75%; LD50 ([14]; ip, intraperitoneal): > 8000 mg/kg; LD50 ([14]; oral): > 8000 mg/kg; LD50 ([14]; sc, subcutaneous): > 8000 mg/kg; acute toxicity relative to Miconazole ([15]; oral and intraperitoneal routes): an order of magnitude less toxic; acute toxicity relative to Miconazole ([15]; subcutaneous): significantly less; less toxic than Martin Compound 1 [16]: 8-15 times; signs of intoxication in the central nervous system (convulsions and Straub tail) [16]: not observed; LD0 ([16]; ip): 4000 mg/kg; LD50 ([16]; ip): 8000 mg/kg
